{"source": "patent US7351882B2", "about": "“Canola line 45H24” (Pioneer Hi-Bred International, Inc., priority 2005, dated 2008)", "tested_on": "Brassica napus variety 45H24", "assay": "Herbicide resistance rating of canola variety 45H24 at standard recommended application rates", "type": "in vivo", "conditions": "for Herbicide resistance (description): result in words", "text": "Herbicide Resistance: Resistance to various herbicides when applied at standard recommended application rates is expressed on a scale of 1 (resistant), 2 (tolerant), or 3 (susceptible).", "data": [{"smiles": "O=C(O)CNCP(=O)(O)O", "note": "[Glyphosate]", "values": [{"measurement": "Herbicide resistance (description)", "value": "resistant"}, {"measurement": "Herbicide resistance (description)", "setting": "listed as glyphosate", "value": "resistance"}, {"measurement": "Herbicide resistance (mean rating)", "setting": "scale 0 = not tested, 1 = resistant, 2 = tolerant, 3 = susceptible", "value": 1.00}]}]}
